Here are results for four compounds from patent publication US20120077828A1, “CHEMICAL COMPOUNDS” (priority 2010, published 2012).

The experiment concerns the target T1, PERK (Homo sapiens, UniProt Q9NZJ5).
T1 construct: GST-PERK (536-1116) cytoplasmic domain was purchased from Invitrogen; purchased Invitrogen PV5106
T1 sequence (Q9NZJ5 536-1116): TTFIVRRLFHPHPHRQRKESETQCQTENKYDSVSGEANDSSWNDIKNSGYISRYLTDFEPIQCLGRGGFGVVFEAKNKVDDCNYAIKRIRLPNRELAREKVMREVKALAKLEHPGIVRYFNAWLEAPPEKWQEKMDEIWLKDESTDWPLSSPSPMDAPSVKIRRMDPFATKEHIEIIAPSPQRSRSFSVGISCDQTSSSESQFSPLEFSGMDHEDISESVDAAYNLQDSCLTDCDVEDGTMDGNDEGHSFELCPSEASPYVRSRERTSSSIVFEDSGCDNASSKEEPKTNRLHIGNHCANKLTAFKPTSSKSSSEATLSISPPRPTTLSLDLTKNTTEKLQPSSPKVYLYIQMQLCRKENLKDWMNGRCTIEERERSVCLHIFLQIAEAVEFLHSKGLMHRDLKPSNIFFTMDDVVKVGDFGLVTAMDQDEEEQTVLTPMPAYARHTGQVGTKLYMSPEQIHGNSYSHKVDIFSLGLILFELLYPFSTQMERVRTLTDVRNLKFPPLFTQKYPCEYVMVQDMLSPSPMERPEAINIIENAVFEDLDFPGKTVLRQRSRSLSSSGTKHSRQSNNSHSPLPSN
Kind of experiment: PKR-like Endoplasmic Reticulum Kinase (PERK) Assay (HTRF Format). The format is biochemical. The following applies: average, in at least one set of experimental runs; read-out: average pIC50 value against PERK (converted). As for the experimental part: PKR-like Endoplasmic Reticulum Kinase (PERK) Assay (HTRF Format)
Source of substrate: elF2α: 6-His-Full-length human elF2α is purified from baculovirus expression in Sf9 insect cells. The elF2 protein is buffer exchanged by dialysis into PBS, chemically modified by NHS-LC-Biotin and then buffer exchanged by dialysis into 50 mm TRIS pH 7.2/250 mM NaCl/5 mM DTT. Protein is aliquoted and stored at −80° C.
Assays were performed by adding GST-PERK solution to assay plates containing compounds and pre-incubated for 30 minutes at room temperature. The reaction is initiated by the addition of ATP and EIF2α substrate solution. Quench solution is added following a one hour incubation at room temperature. The plates are covered for 2 hours at room temperature prior to determination of signal. The resulting signal is quantified on a Viewlux Reader (PerkinElmer). The APC Signal is normalized to the Europium signal by transforming the data through an APC/Eu calculation.
Compounds under analysis were dissolved in DMSO to 1.0 mM and serially diluted 1 to 3 with DMSO through eleven dilutions. 0.1 μl of each concentration was transferred to the corresponding well of an assay plate. This creates a final compound concentration range from 0.00017 to 10 μM.
The data for concentration response curves were plotted as % Inhibition calculated with the data reduction formula 100*(1−(U1−C2)/(C1−C2)) versus concentration of compound where U is the unknown value, C1 is the average control value obtained for 1% DMSO, and C2 is the average control value obtained for 0.1 M EDTA. Data were fitted with a curve described by:
where A is the minimum y, B is the maximum y concentration [M], D is the slope factor, and x is the log10 of the compound.
In the above data, pIC50 is defined as −log(IC50) where the IC50 value is expressed in molar units.

With `Cn1cc(-c2ccc3c(c2)CCN3C(=O)Cc2ccc(F)cc2)c2c(N)ncnc21` [Example 93, 5-{1-[(4-fluorophenyl)acetyl]-2,3-dihydro-1H-indol-5-yl}-7-methyl-7H-pyrrolo[2,3-d]pyrimidin-4-amine], the IC50 was no more than 2.51 nM.

For `CN(C)CCn1cc(-c2ccc3c(c2)CCN3C(=O)Cc2cccc(C(F)(F)F)c2)c2c(N)ncnc21` [Example 134, 7-[2-(dimethylamino)ethyl]-5-(1-{[3-(trifluoromethyl)phenyl]acetyl}-2,3-dihydro-1H-indol-5-yl)-7H-pyrrolo[2,3-d]pyrimidin-4-amine], the IC50 is no more than 1 nM. The result for `Cn1nc(-c2ccc3c(c2)CCN3C(=O)Cc2cc(F)cc(F)c2F)c2c(N)ncnc21` [Example 55, 1-methyl-3-{1-[(2,3,5-trifluorophenyl)acetyl]-2,3-dihydro-1H-indol-5-yl}-1H-pyrazolo[3,4-d]pyrimidin-4-amine] reads no more than 2.51 nM; that for `Cc1ccc(F)c(CC(=O)N2CCc3cc(-c4cn(C)c5ncnc(N)c45)ccc32)c1` [Example 73, 5-{1-[(2-fluoro-5-methylphenyl)acetyl]-2,3-dihydro-1H-indol-5-yl}-7-methyl-7H-pyrrolo[2,3-d]pyrimidin-4-amine], no more than 1 nM.
